Where two headings read alike, the source gives them in different places.
Legend:
mouse hepatocytes [1] = assay: cells; conditions: Hepatocyte, 1 h
acrolein-modified BSA = molecular target: T1, acrolein-modified BSA (Bos taurus, UniProt P02769); assay: Cell-free immunoassay for adduct-breaking on acrolein-pretreated BSA; assay type: biochemical, bovine; conditions: for adduct-breaking activity (acrolein-lysine adducts in BSA): BSA pretreated with 1 mM acrolein 20 min, 50, 250 and 500 μM test compound, 30 min at 37° C.
T1 construct: a model protein (BSA, bovine serum albumin); from tissue; host or cells: bovine serum (from the protein's name only)

[2] = Sequestering of crotonaldehyde from buffered solution at 37° C. (HPLC); conditions: equimolar scavenger, up to 30 minutes
mouse hepatocytes [3] = tested on: mouse hepatocytes
[4] = pH 7
PC-12 cells = assay: Allylamine cytotoxicity in PC-12 cells (MTT)
mouse liver = assay: Adduct-trapping in mouse liver proteins (Western blot, immunohistochemistry); assay type: in vivo; conditions: for immunohistochemical detection of hydralazine-stabilized acrolein adducts in liver sections: 4 hours after 300 μmol/kg i.p., hydralazine given with allyl alcohol, hydrazone given alone
mouse hepatocytes [5] = assay: Crotyl alcohol toxicity in isolated mouse hepatocytes (LDH leakage); conditions: 500 μM crotyl alcohol; for protection against crotyl alcohol toxicity by other hydrazines: 1-100 μM hydrazine, 1-3 hours
mice = assay: Allyl alcohol hepatotoxicity in mice (plasma SDH, GPT, hepatic GSH)
mouse hepatocytes [6] = tested on: mouse hepatocytes; remark: listed apart in the source
mouse hepatocytes [7] = assay: Toxicity of smoke extract in mouse hepatocytes (LDH leakage); assay type: cell-based; conditions: 50 μM smoke-derived acrolein equivalents; 25, 50 and 100 μM drug; up to 180 min
mouse hepatocytes [8] = conditions: 15 min, 3 mM hydralazine alone or 0.5 mM acrolein + 0.3 to 3 mM hydralazine
[9] = molecular target: bovine pancreas ribonuclease A (Bos taurus, UniProt P61823); conditions: 3.2 mM acrolein; 0.3 to 3 mM hydralazine
mouse hepatocytes [10] = conditions: 0.5 mM acrolein; 0.3 to 3 mM hydralazine
[11] = hypertensive human subjects, 50 mg oral dose; cited from earlier work
acrolein-premodified BSA = acrolein-premodified BSA (Bos taurus, UniProt P02769); conditions: 1 mM acrolein, then 50 to 500 μM hydralazine 30 min
mouse hepatocytes [12] = tested on: mouse hepatocytes; remark: listed apart in the source
mouse hepatocytes [13] = tested on: mouse hepatocytes; remark: listed apart in the source
[14] = read-out: PC50 (concentration producing a 50% decrease in LDH leakage)
[15] = read-out: PC50 (concentration affording 50% reduction in cell killing)
[16] = 200 vs 100 μmol/kg hydralazine, allyl alcohol 90 mg/kg, 60 minutes
[17] = allyl alcohol 90 mg/kg i.p., 4 hours, estimated from dose-response
[18] = hydralazine 200 μmol/kg i.p., allyl alcohol 90 mg/kg

T1 sequence (P02769 25-607): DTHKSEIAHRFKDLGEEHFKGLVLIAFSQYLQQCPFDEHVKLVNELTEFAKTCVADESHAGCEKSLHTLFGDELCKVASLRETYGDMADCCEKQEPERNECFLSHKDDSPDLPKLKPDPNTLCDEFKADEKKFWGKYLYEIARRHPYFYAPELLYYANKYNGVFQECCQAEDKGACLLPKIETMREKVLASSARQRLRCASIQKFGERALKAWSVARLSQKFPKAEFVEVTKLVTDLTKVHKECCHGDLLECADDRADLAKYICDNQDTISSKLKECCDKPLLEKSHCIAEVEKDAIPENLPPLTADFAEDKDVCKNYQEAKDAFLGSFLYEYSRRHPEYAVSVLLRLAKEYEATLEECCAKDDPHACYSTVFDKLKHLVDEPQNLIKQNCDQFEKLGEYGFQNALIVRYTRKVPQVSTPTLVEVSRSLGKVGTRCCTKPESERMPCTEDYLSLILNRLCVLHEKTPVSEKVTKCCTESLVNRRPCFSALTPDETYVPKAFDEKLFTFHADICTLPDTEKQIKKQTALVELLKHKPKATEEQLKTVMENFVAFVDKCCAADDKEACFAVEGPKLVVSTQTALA
Chain of bovine pancreas ribonuclease A (P61823 27-150): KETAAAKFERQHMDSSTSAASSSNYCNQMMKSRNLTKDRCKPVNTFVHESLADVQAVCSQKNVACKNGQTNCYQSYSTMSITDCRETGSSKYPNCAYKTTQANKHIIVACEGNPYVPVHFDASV
Chain of acrolein-premodified BSA (P02769 25-607): as the sequence (P02769 25-607) above

## O=C(O)c1ccccc1O [salicylic acid]
Mouse hepatocytes [1]; [14]
  EC50: 59 ± 11 µM

## Cc1ncc(CO)c(CN)c1O [pyridoxamine]
acrolein-modified BSA
  adduct-breaking activity (acrolein-lysine adducts in BSA): lacked adduct-breaking potency
Mouse hepatocytes [1]; [15]
  EC50: > 10000 µM
Mouse hepatocytes [1]; [14]
  EC50: > 10000 µM

## Nc1ccccc1 [aniline]
Mouse hepatocytes [1]; [14]
  EC50: 61 ± 20 µM

## carnosine
acrolein-modified BSA
  adduct-breaking activity (acrolein-lysine adducts in BSA): lacked adduct-breaking potency
[2]
  ability to sequester crotonaldehyde from solution: slightly more effective at removing crotonaidehyde from solution than pyridoxamine
Mouse hepatocytes [3]; [15]
  EC50: > 10000 µM
Mouse hepatocytes [3]; [14]
  EC50: > 10000 µM
[4]
  acrolein removed from solution: approximately 20%

## CCCCNC [N-methylbutylamine]
Mouse hepatocytes [1]; [14]
  EC50: 6 ± 2.2 µM

## aminoguanidine
acrolein-modified BSA
  adduct-breaking activity (acrolein-lysine adducts in BSA): lacked adduct-breaking potency
Mouse hepatocytes [3]; [15]
  EC50: > 10000 µM
Mouse hepatocytes [3]; [14]
  EC50: > 10000 µM
[4]
  acrolein removed from solution: approximately 4%

## C=CCN [allylamine]
PC-12 cells; Rattus norvegicus, PC-12, 24 h, read-out: concentration producing 50% cell death
  EC50: ~45 µM

## C=C/C=N/Nc1nncc2ccccc12 [(1E)-acrylaldehyde 1-[1-phthalazinyl]-hydrazone]
Mouse liver
  immunohistochemical detection of hydralazine-stabilized acrolein adducts in liver sections: no immunorecognition was evident

## NNc1nccc2ccccc12 [hydrazinoisoquinoline, 1-hydrazinoisoquinoline]
Mouse hepatocytes [1]; [14]
  EC50: 6 ± 0.14 µM

## NNCc1ccccc1 [benzylhydrazine]
Mouse hepatocytes [5]
  protection against crotyl alcohol toxicity by other hydrazines: very poor cytoprotection
Mouse hepatocytes [1]; [14]
  EC50: 37 ± 1.8 µM

## NCCCC[C@H](N)C(=O)O [lysine]
[4]
  acrolein removed from solution: approximately 13%

## c1ccc(Nc2ccc(Nc3ccccc3)cc2)cc1 [N,N′-Diphenyl-p- phenylenediamine, N,N′-Diphenyl-p-phenylenediamine]
Mouse hepatocytes [1]; [14]
  EC50: 4 ± 1.3 µM

## NNc1ccc2ccccc2n1 [hydrazinoquinoline, 2-hydrazinoquinoline]
Mouse hepatocytes [1]; [14]
  EC50: 11 ± 0.44 µM

## c1ccc(Nc2ccccc2)cc1 [diphenylamine]
Mouse hepatocytes [1]; [14]
  EC50: 3 ± 1.2 µM

## C/C=C/CO [crotyl alcohol]
Mouse hepatocytes [5]; by 3 hours
  cell death induced: 100%

## C=CCO [allyl alcohol]
Mouse hepatocytes [3]; mouse
  cell death induced: 100%
mice; 90 mg/kg
  fatalities: no fatalities
mice; 90 mg/kg i.p., 4 hours
  decrease in hepatic GSH stores: 65%
  elevation of plasma GPT activity over controls: 24 fold
  elevation of plasma SDH activity over controls: 30 fold
mice; 100 mg/kg
  mortality: 30%

## CC(C)NC(C)C [diisopropylamine]
Mouse hepatocytes [1]; [14]
  EC50: 66 ± 15 µM

## Oc1ccccc1 [phenol]
Mouse hepatocytes [1]; [14]
  EC50: 48 ± 12 µM

## NNc1cccc2ccccc12 [naphthylhydrazine]
Mouse hepatocytes [1]; [14]
  EC50: 7 ± 0.19 µM

## NNc1ccccc1 [phenylhydrazine]
Mouse hepatocytes [1]; [14]
  EC50: 8 ± 0.28 µM

## Nc1ccccc1O [o-aminophenol]
Mouse hepatocytes [1]; [14]
  EC50: 18 ± 3.2 µM

## c1ccc(NNc2ccccc2)cc1 [1,2-diphenylhydrazine]
Mouse hepatocytes [1]; [14]
  EC50: 19 ± 2.6 µM

## NNc1ncnc2ccccc12 [hydrazinoquinazoline, 4-hydrazinoquinazoline]
Mouse hepatocytes [1]; [14]
  EC50: 10 ± 0.05 µM

## NN(c1ccccc1)c1ccccc1 [1,1-diphenylhydrazine]
Mouse hepatocytes [5]
  protection against crotyl alcohol toxicity by other hydrazines: best protection
Mouse hepatocytes [1]; [14]
  EC50: 2 ± 0.01 µM

## Sc1ccccc1 [thiophenol]
Mouse hepatocytes [1]; [14]
  EC50: > 100 µM

## NC1CCCCC1 [cyclohexylamine]
Mouse hepatocytes [1]; [14]
  EC50: > 100 µM

## CCCC(C(=O)OCCN(CC)CC)(c1ccccc1)c1ccccc1 [proadifen]
Mouse hepatocytes [6]
  effect on cyclophosphamide-induced LDH leakage: abolished the cyclophosphamide-induced increase in LDH leakage

## NNc1nnc(NN)c2ccccc12 [dihydralazine]
Mouse hepatocytes [6]
  effect on cyclophosphamide-induced LDH leakage: attenuated the toxicity of cyclophosphamide
acrolein-modified BSA
  adduct-breaking activity (acrolein-lysine adducts in BSA): reducing adducts below detectable levels
Mouse hepatocytes [3]
  attenuation of allyl alcohol toxicity (LDH leakage): strongly attenuated the toxicity of allyl alcohol
  protection against allyl alcohol toxicity (LDH leakage): approximately twice as protective as hydralazine
Mouse hepatocytes [5]; co-incubated up to 3 hours, 1-100 μM
  protection against crotyl alcohol toxicity (LDH leakage): approximately twice as effective as hydralazine
Mouse hepatocytes [7]
  attenuation of LDH leakage caused by smoke extract: completely attenuating LDH leakage at all concentrations examined
Mouse hepatocytes [1]; [15]
  EC50: 5.2 ± 1.5 µM
Mouse hepatocytes [1]; [14]
  EC50: 13 ± 0.29 µM
[4]
  acrolein removed from solution: ~92%
PC-12 cells; 45 μM allylamine, 24 hr, approximately 1 μM dihydralazine and higher, allylamine alone about 40% of controls
  cell viability restored to: approximately 80%

## c1ccc2c(c1)[nH]c1ccccc12 [carbazole]
Mouse hepatocytes [1]; [14]
  EC50: 40 ± 12 µM

## NNc1ccccn1 [hydrazinopyridine, 2-hydrazinopyridine]
Mouse hepatocytes [1]; [14]
  EC50: 40 ± 6.1 µM

## Nc1ccc(O)cc1 [p-aminophenol]
Mouse hepatocytes [1]; [14]
  EC50: 20 ± 8.5 µM

## 1,1-dimethylhydrazine
Mouse hepatocytes [3]; [14]
  EC50: > 100 µM

## NNc1nncc2ccccc12 [hydralazine]
Mouse liver; [16]
  elevation in signal intensity, 26 kDa protein: 2.6 fold
  elevation in signal intensity, 31 kDa protein: 2.4 fold
Mouse liver; 60 minutes after allyl alcohol 90 mg/kg + hydralazine 100 μmol/kg
  adduct-trapping in liver proteins (Western blot): strong adduct-trapping
Mouse liver
  immunohistochemical detection of hydralazine-stabilized acrolein adducts in liver sections: intense adduct-trapping
Mouse hepatocytes [8]
  intensity of acrolein adduct-containing protein bands: much lower than that seen in control cells
Mouse hepatocytes [8]; listed as Hydralazine
  intensity of acrolein adduct-containing protein bands: decreasing levels of adducted proteins below control values
Mouse hepatocytes [6]
  effect on cyclophosphamide-induced LDH leakage: attenuated the toxicity of cyclophosphamide
[9]
  acrolein-lysine adducts in RNase A, added at 30 minutes: abolished the levels of acrolein-lysine adducts
  effect on cross-linked RNase A, added at 120 minutes: incapable of cleaving crosslinked RNase A
  inhibition of RNase A cross-linking, added at 30 minutes: strongly inhibited formation of crosslinked RNase A
Mouse hepatocytes [10]
  cytoprotection against acute acrolein toxicity (LDH leakage): afford cytoprotection
acrolein-modified BSA; BSA + 1 mM acrolein 15-180 min, then 2 mM hydralazine 30 min
  time acrolein adducts retained susceptibility to cleavage by hydralazine: at least 30 minutes
acrolein-modified BSA
  adduct-breaking activity (acrolein-lysine adducts in BSA): diminished the intensity of acrolein adducted-BSA in a concentration-dependent manner
Mouse hepatocytes [3]
  attenuation of allyl alcohol toxicity (LDH leakage): strongly attenuated the toxicity of allyl alcohol
  protection against allyl alcohol toxicity (LDH leakage): inhibited this toxicity in a concentration dependent manner
mice; allyl alcohol 90 mg/kg i.p. + hydralazine 300 μmol/kg i.p., 4 hours
  effect on allyl alcohol-induced changes in plasma SDH and GPT activities: almost totally abolishing
mice; [17]
  dose affording half-maximal protection against liver injury (GPT): 80 µmol/kg
  dose affording half-maximal protection against liver injury (SDH): 160 µmol/kg
mice; allyl alcohol 90 mg/kg, hepatoprotective doses up to 300 μmol/kg
  effect on hepatic GSH depletion caused by allyl alcohol: had no effect upon the hepatic GSH depletion
mice; allyl alcohol 100 mg/kg i.p. + hydralazine 100 μmol/kg i.p., 4 hours
  effect on plasma SDH levels: did not alter the levels of SDH
mice; allyl alcohol 100 mg/kg i.p. + hydralazine 200 and 300 μmol/kg i.p., 4 hours
  decrease in plasma SDH activity: 75 to 90%
mice; [18]
  hepatoprotection (plasma SDH), 30 minute delay: hepatoprotective efficacy was diminished
  hepatoprotection (plasma SDH), co-administered or 20 minute delay: strongly hepatoprotective
[11]
  peak plasma level: ~2 µM
acrolein-premodified BSA
  adduct-trapping in acrolein-premodified BSA: strong adduct-trapping
Mouse hepatocytes [1]; [15]
  EC50: 8.3 ± 4 µM
Mouse hepatocytes [1]; [14]
  EC50: 18 ± 0.81 µM
[4]
  acrolein removed from solution: approximately 82%
PC-12 cells; 100 μM hydralazine + 80 or 100 μM allylamine
  adduct-trapping in PC12 cell proteins (Western blot): intense adduct-trapping reactions
PC-12 cells; 100 μM hydralazine, 20-100 μM allylamine
  protection against allylamine toxicity, added after 4 hour prior exposure: also protected
PC-12 cells; 100 μM hydralazine, 20-100 μM allylamine, overnight
  protection against allylamine toxicity, concurrent exposure: clear protection
Mouse hepatocytes [12]; 1 mM pentenal, 3 hours
  protection against pentenal toxicity: protection was most efficient for pentenal toxicity
Mouse hepatocytes [12]; 1 mM propargyl alcohol, 3 hours, highest concentration used
  concentration achieving complete protection against propargyl alcohol toxicity: 100 µM
Mouse hepatocytes [12]; 10 mM MDA, 12 to 18 hours, highest concentration used
  concentration achieving complete protection against MDA toxicity: 100 µM
Mouse hepatocytes [13]; 100 μM allyl alcohol 25 min, then 5 to 50 μM hydralazine 30 min
  adduct-trapping in cell proteins: intense, concentration-dependent adduct-trapping
Mouse hepatocytes [13]; 37, 40 and 43 kDa proteins, hydralazine 4 to 10 μM, postadduction phase
  increase in band intensity (densitometry): 12- to-200 fold

## NCc1ccccc1 [benzylamine]
Mouse hepatocytes [1]; [14]
  EC50: > 100 µM

## CON [methoxyamine]
acrolein-modified BSA
  adduct-breaking activity (acrolein-lysine adducts in BSA): effects were most evident at the top concentration studied
Mouse hepatocytes [1]; [15]
  EC50: 9000 ± 1800 µM
Mouse hepatocytes [1]; [14]
  EC50: 9000 ± 1800 µM
[4]
  acrolein removed from solution: around 40%

## O=P1(N(CCCl)CCCl)NCCCO1 (stereo not shown) [cyclophosphamide]
Mouse hepatocytes [6]; 18-hr incubation
  concentration producing complete cell death: ≥ 250 µM

## C1CCC(NC2CCCCC2)CC1 [dicyclohexylamine]
Mouse hepatocytes [1]; [14]
  EC50: 59 ± 11 µM

Source: patent US20060160848A1 (priority 2002, published 2006)
